{
  "source": "PubChem BioAssay AID1259409",
  "about": "(Chemical Carcinogenesis Research Information System (CCRIS), 2018)",
  "origin": "cited, not measured here",
  "test_system": "rodent chemically induced tumor inhibition, incidence and multiplicity",
  "assay": "CCRIS tumor inhibitor studies",
  "data": [
    {"smiles": "CC1=C(/C=C/C(C)=C/C=C/C(C)=C/C(=O)Nc2ccc(O)cc2)C(C)(C)CCC1", "values": [
      {"measurement": "tumour outcome (control, treated, inhibition, significance)", "setting": "Carcinogen: 7,12-DIMETHYLBENZ[A]ANTHRACENE, 57-97-6, Dose [Inhibitor]: 1.5 MMOL/KG CHOW DIET IN 25 ML OF THE VEHICLE (ETHANOL/TRICAPRYLIN 1:4 (VOL/VOL) PLUS 6% (WT/VOL) ALPHA-TOCOPHEROL) BEGI, Route [Inhibitor]: ORAL, Species: RAT, Strain/Sex: SPRAGUE-DAWLEY/FEMALE, Target Tissue: Type of Lesion: MAMMARY GLAND: TUMOR, Dose [Carcinogen]: 75 MG/KG BW IN 1.0 ML SESAME OIL ONCE, Promoter: NONE USED", "result": "70%, 30%, 57%, not significant"},
      {"measurement": "tumour outcome (control, treated, inhibition, significance)", "setting": "Carcinogen: 7,12-DIMETHYLBENZ[A]ANTHRACENE, 57-97-6, Dose [Inhibitor]: 2 MMOL/KG DIET DAILY FROM 10 D THROUGH 12 WK AFTER CARCINOGEN DOSE FOLLOWED BY 16 WK OBSERVATION PERIOD (STUDY DURATION:, Route [Inhibitor]: ORAL, Species: RAT, Strain/Sex: SPRAGUE-DAWLEY/FEMALE, Target Tissue: Type of Lesion: MAMMARY GLAND: TUMOR, Dose [Carcinogen]: 10 MG/RAT ONCE, Promoter: NONE USED", "result": "8/15 (53%), 7/15 (47%), 11%, not significant"},
      {"measurement": "tumour outcome (control, treated, inhibition, significance)", "setting": "Carcinogen: 7,12-DIMETHYLBENZ[A]ANTHRACENE, 57-97-6, Dose [Inhibitor]: 2 MMOL/KG DIET DAILY FROM 29 D PRIOR THROUGH 12 WK AFTER CARCINOGEN DOSE FOLLOWED BY 16 WK OBSERVATION PERIOD (STUDY DUR, Route [Inhibitor]: ORAL, Species: RAT, Strain/Sex: SPRAGUE-DAWLEY/FEMALE, Target Tissue: Type of Lesion: MAMMARY GLAND: TUMOR, Dose [Carcinogen]: 10 MG/RAT ONCE, Promoter: NONE USED", "result": "8/15 (53%), 9/15 (60%), -13%, not significant"},
      {"measurement": "tumour outcome (control, treated, inhibition, significance)", "setting": "Carcinogen: DIETHYLNITROSAMINE [55-18-5], Dose [Inhibitor]: 280 NM/100 G BW WK FOR 3 WK BETWEEN 4TH AND 25TH WK AFTER CARCINOGEN (STUDY DURATION: 50 WK), Route [Inhibitor]: IP INJECTION, Species: RAT, Strain/Sex: F344/MALE, Target Tissue: Type of Lesion: LIVER: HEPATOCELLULAR CARCINOMA, Dose [Carcinogen]: 150 MG/KG ONCE, Promoter: 2-ACETYLAMINOFLUORENE [53-96-3]", "result": "14/18 (78%), 6/20 (30%), 62%, p= 0.0044"},
      {"measurement": "tumour outcome (control, treated, inhibition, significance)", "setting": "Carcinogen: DIETHYLNITROSAMINE, 55-18-5, Dose [Inhibitor]: 0, 98 MG/KG DIET FOR DURATION OF STUDY BEGINNING 1 WK PRIOR TO CARCINOGEN TREATMENT (STUDY DURATION: 25 WK), Route [Inhibitor]: ORAL, Species: HAMSTER, Strain/Sex: SYRIAN/MALE, Target Tissue: Type of Lesion: LUNG: CARCINOMA, Dose [Carcinogen]: 17.8 MG/KG BW 2/WK FOR 20 WK, Promoter: NONE USED", "result": "50%, 45%, 10%, not significant"},
      {"measurement": "tumour outcome (control, treated, inhibition, significance)", "setting": "Carcinogen: DIETHYLNITROSAMINE, 55-18-5, Dose [Inhibitor]: 0, 98 MG/KG DIET FOR DURATION OF STUDY BEGINNING 1 WK PRIOR TO CARCINOGEN TREATMENT (STUDY DURATION: 25 WK), Route [Inhibitor]: ORAL, Species: HAMSTER, Strain/Sex: SYRIAN/MALE, Target Tissue: Type of Lesion: TRACHEA: PAPILLOMA, Dose [Carcinogen]: 17.8 MG/KG BW 2/WK FOR 20 WK, Promoter: NONE USED", "result": "95%, 95%, 0%, not significant"},
      {"measurement": "tumour outcome (control, treated, inhibition, significance)", "setting": "Carcinogen: DIETHYLNITROSAMINE, 55-18-5, Dose [Inhibitor]: 0, 196 MG/KG DIET FOR DURATION OF STUDY BEGINNING 1 WK PRIOR TO CARCINOGEN TREATMENT (STUDY DURATION: 25 WK), Route [Inhibitor]: ORAL, Species: HAMSTER, Strain/Sex: SYRIAN/MALE, Target Tissue: Type of Lesion: LUNG: CARCINOMA, Dose [Carcinogen]: 17.8 MG/KG BW 2/WK FOR 20 WK, Promoter: NONE USED", "result": "60%, 50%, 17%, not significant"},
      {"measurement": "tumour outcome (control, treated, inhibition, significance)", "setting": "Carcinogen: DIETHYLNITROSAMINE, 55-18-5, Dose [Inhibitor]: 0, 196 MG/KG DIET FOR DURATION OF STUDY BEGINNING 1 WK PRIOR TO CARCINOGEN TREATMENT (STUDY DURATION: 25 WK), Route [Inhibitor]: ORAL, Species: HAMSTER, Strain/Sex: SYRIAN/MALE, Target Tissue: Type of Lesion: TRACHEA: PAPILLOMA, Dose [Carcinogen]: 17.8 MG/KG BW 2/WK FOR 20 WK, Promoter: NONE USED", "result": "100%, 100%, 0%, not significant"},
      {"measurement": "tumour outcome (control, treated, inhibition, significance)", "setting": "Carcinogen: DIMETHYLBENZ[A]ANTHRACENE, 57-97-6, Dose [Inhibitor]: 0, 782 MG/KG DIET IN VEHICLE 2 MO PRIOR TO CARCINOGEN DOSE AND CONTINUED UNTIL CARCINOGEN ADMINISTRATION (STUDY DURATION, Route [Inhibitor]: ORAL, Species: RAT, Strain/Sex: CD-1/FEMALE, Target Tissue: Type of Lesion: MAMMARY GLAND: ADENOCARCINOMA, Dose [Carcinogen]: 20 MG IN 1 ML SESAME OIL ONCE, Promoter: NONE USED", "result": "63%, 71%, -13%, not calculated"},
      {"measurement": "tumour outcome (control, treated, inhibition, significance)", "setting": "Carcinogen: DIMETHYLBENZ[A]ANTHRACENE, 57-97-6, Dose [Inhibitor]: 0, 782 MG/KG DIET IN VEHICLE 2 MO PRIOR TO CARCINOGEN DOSE AND CONTINUED UNTIL CARCINOGEN ADMINISTRATION (STUDY DURATION, Route [Inhibitor]: ORAL, Species: RAT, Strain/Sex: CD-1/FEMALE, Target Tissue: Type of Lesion: MAMMARY GLAND: ADENOMA, Dose [Carcinogen]: 20 MG IN 1 ML SESAME OIL ONCE, Promoter: NONE USED", "result": "17%, 43%), -153%, not calculated"},
      {"measurement": "tumour outcome (control, treated, inhibition, significance)", "setting": "Carcinogen: METHYLNITROSOUREA, 684-93-5, Dose [Inhibitor]: 0, 782 MG/KG DIET IN VEHICLE 2 MO PRIOR TO CARCINOGEN DOSE AND CONTINUED FOR STUDY DURATION (STUDY DURATION: 8 MO), Route [Inhibitor]: ORAL, Species: RAT, Strain/Sex: CD-1/FEMALE, Target Tissue: Type of Lesion: MAMMARY GLAND: ADENOCARCINOMA, Dose [Carcinogen]: 50 MG/KG BW ONCE, Promoter: NONE USED", "result": "57%, 23%, 60%, p<0.05"},
      {"measurement": "tumour outcome (control, treated, inhibition, significance)", "setting": "Carcinogen: METHYLNITROSOUREA, 684-93-5, Dose [Inhibitor]: 0, 782 MG/KG DIET IN VEHICLE 2 MO PRIOR TO CARCINOGEN DOSE AND CONTINUED FOR STUDY DURATION (STUDY DURATION: 8 MO), Route [Inhibitor]: ORAL, Species: RAT, Strain/Sex: CD-1/FEMALE, Target Tissue: Type of Lesion: MAMMARY GLAND: BENIGN TUMOR, Dose [Carcinogen]: 50 MG/KG BW ONCE, Promoter: NONE USED", "result": "10%, 3%, 70%, not calculated"},
      {"measurement": "tumour outcome (control, treated, inhibition, significance)", "setting": "Carcinogen: METHYLNITROSOUREA, 684-93-5, Dose [Inhibitor]: 0, 782 MG/KG DIET IN VEHICLE 2 MO PRIOR TO CARCINOGEN DOSE AND CONTINUED UNTIL CARCINOGEN ADMINISTRATION (STUDY DURATION, Route [Inhibitor]: ORAL, Species: RAT, Strain/Sex: CD-1/FEMALE, Target Tissue: Type of Lesion: MAMMARY GLAND: ADENOCARCINOMA, Dose [Carcinogen]: 50 MG/KG BW ONCE, Promoter: NONE USED", "result": "57%, 66%, -16%, not calculated"}
    ]}
  ]
}
